Assay [1] has as its system HAP1 MTAP-intact cell line. In words: SDMA in-cell western assay, HAP1 MTAP-intact. Format: cell-based. The note with it: Homo sapiens, HAP1, SDMA in-cell western, HAP1 MTAP-intact; read-out: MTAP HAP1 intact IC50. The gist of the method:
(§1)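 MTAP-null vs endogenous-MTAP HAP1 isogenic cells; in-cell western SDMA readout; IC50 per line.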

The test system of assay [2] is HAP1 MTAP-deleted cell line. In words: SDMA in-cell western assay, HAP1 MTAP-deleted. Format: cell-based. The settings on record: for pIC50: Homo sapiens, HAP1, SDMA in-cell western, HAP1 MTAP-deleted, read-out: HAP1 MTAP deleted IC50; for MTAP intact/deleted ratio: IC50 ratio HAP1 MTAP-intact / HAP1 MTAP-deleted, SDMA in-cell western. The gist of the method:
as §1

For assay [3], the target named is T1, PRMT5 (Homo sapiens, UniProt O14744).
T1 construct: purchased Viva (custom protein)
In words: PRMT5 biochemical IC50 assay with MTA as cofactor. The settings on record: PRMT5, MTA as cofactor; read-out: MTA IC50.

For assay [4], the system named is HAP1 MTAP-deleted cell line. Briefly: Viability assay, MTAP-deleted cell line. The assay is classed as cell-based. The note with it: Homo sapiens, HAP1, viability assay, MTAP-deleted cell line; read-out: HAP1 MTAP deleted viability. From the text: Table 1 additionally indicates IC50 values in a viability assay for the MTAP-deleted cell line (column 10), indicating the effect of treatment with compound on cell survival.

Assay [5] concerns the target T1, PRMT5. Briefly: PRMT5 biochemical IC50 assay with SAM as cofactor. The settings on record: PRMT5, SAM as cofactor; read-out: SAM IC50.
Assay [6] has as its target T1, PRMT5. In words: PRMT5 biochemical IC50 assay with no cofactor. The settings on record: PRMT5, no cofactor; read-out: No Cofactor/rel IC50. From the text: Table 1 indicates IC50 values (μM) against PRMT5 for exemplary compounds in the presence of SAM as cofactor, with no cofactor, and with MTA as cofactor, respectively (columns 4-6). […] Ki values can be calculated from the IC50 values as described in the Examples section. As detailed in the Examples section, for the assay performed in the presence of SAM, IC50=Ki×1.5 (Ki=IC50/1.5).

pIC50: −log10 of the molar value.

Drawing on patent US11999727B2 (Tango Therapeutics, Inc., priority 2020, dated 2024), this text covers IC50 and MTAP intact/deleted ratio for 18 molecules.

T1 sequence (O14744 whole entry): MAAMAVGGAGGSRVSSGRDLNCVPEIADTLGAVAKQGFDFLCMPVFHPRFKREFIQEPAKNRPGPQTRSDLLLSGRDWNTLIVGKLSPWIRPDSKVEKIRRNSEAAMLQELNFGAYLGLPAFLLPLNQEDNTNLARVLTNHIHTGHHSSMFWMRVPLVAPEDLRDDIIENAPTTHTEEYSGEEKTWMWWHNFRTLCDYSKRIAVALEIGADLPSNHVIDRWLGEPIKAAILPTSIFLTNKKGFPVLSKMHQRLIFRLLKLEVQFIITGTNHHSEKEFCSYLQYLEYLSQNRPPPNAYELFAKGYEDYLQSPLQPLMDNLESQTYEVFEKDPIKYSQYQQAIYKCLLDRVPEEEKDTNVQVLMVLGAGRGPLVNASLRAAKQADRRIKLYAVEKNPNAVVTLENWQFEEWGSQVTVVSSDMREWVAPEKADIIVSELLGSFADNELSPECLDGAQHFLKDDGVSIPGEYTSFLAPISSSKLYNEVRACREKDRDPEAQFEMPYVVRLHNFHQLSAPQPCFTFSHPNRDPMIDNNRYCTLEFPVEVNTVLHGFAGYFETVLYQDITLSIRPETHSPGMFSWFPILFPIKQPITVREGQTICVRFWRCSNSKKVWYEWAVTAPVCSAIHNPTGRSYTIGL
T1 sequence (Q9BQA1 whole entry partner): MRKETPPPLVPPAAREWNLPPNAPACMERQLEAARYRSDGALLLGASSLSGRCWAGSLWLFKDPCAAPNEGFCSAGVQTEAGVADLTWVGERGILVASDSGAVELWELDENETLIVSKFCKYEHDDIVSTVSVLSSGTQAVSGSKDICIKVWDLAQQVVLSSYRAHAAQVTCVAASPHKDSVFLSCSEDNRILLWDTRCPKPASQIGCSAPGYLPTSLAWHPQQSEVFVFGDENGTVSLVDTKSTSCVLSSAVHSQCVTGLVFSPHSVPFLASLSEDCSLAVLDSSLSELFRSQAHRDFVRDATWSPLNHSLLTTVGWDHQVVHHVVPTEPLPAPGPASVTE

As to `Cc1c(NC(=O)C(=O)N2C[C@@H](C)CC[C@@H]2c2ccccc2)cnc(N)c1C` (single isomer, unassigned) [Compound 368], the pIC50 in assay [1] was < 6.00; in assay [2], > 7.00; at PRMT5 [3] it was > 7.30; in assay [4], 5.00 to 6.00; on PRMT5 [5] it was 6.30 to 7.30; at PRMT5 [6] it was 6.30 to 7.30. Also, the MTAP intact/deleted ratio result in assay [2] is recorded as “A (an IC50 ratio greater than or equal to 10 fold)”.
As for `COc1ncc(NC(=O)C(=O)N2C[C@@H](C)CC[C@@H]2C2CCCCC2)cc1C(N)=O` (single isomer, unassigned) [Compound 369], the pIC50 is < 6.00 in assay [1]; 6.00 to 7.00 in assay [2]; > 7.30 at PRMT5 [3]; 5.00 to 6.00 in assay [4]; 6.30 to 7.30 at PRMT5 [5]; 6.30 to 7.30 at PRMT5 [6]. Besides, the MTAP intact/deleted ratio entry in assay [2] is given as “A (an IC50 ratio greater than or equal to 10 fold)”.
Consider `C[C@H]1CC[C@H](c2cccc(N(C)C)c2)N(C(=O)C(=O)Nc2cncc(C(N)=O)c2)C1` (single isomer, unassigned) [Compound 374], for which the pIC50 is < 6.00 in assay [1]; < 6.00 in assay [2]; < 6.30 at PRMT5 [3]; < 5.00 in assay [4]; < 6.30 at PRMT5 [5]; < 6.30 on PRMT5 [6]. Also, the MTAP intact/deleted ratio result in assay [2] is recorded as “C (an IC50 ratio of less than 3 fold)”.
As to `C[C@@H]1CC[C@@H](c2cccc(N(C)C)c2)N(C(=O)C(=O)Nc2cncc(C(N)=O)c2)C1` (single isomer, unassigned) [Compound 375], the pIC50 is < 6.00 in assay [1]; > 7.00 in assay [2]; > 7.30 at PRMT5 [3]; 5.00 to 6.00 in assay [4]; 6.30 to 7.30 on PRMT5 [5]; 6.30 to 7.30 on PRMT5 [6]. In addition, the MTAP intact/deleted ratio entry in assay [2] was “A (an IC50 ratio greater than or equal to 10 fold)”.
As to `C[C@H]1CC[C@H](c2ccc3c(c2)C[C@H](C)O3)N(C(=O)C(=O)Nc2cncc(C(N)=O)c2)C1` (single isomer, unassigned) [Compound 376], the pIC50 in assay [1] was < 6.00; in assay [2], < 6.00; at PRMT5 [3], < 6.30; in assay [4], < 5.00; at PRMT5 [5], < 6.30; on PRMT5 [6], < 6.30. Moreover, the MTAP intact/deleted ratio entry in assay [2] is on record as “C (an IC50 ratio of less than 3 fold)”.
`C[C@H]1CC[C@H](c2ccc3c(c2)C[C@@H](C)O3)N(C(=O)C(=O)Nc2cncc(C(N)=O)c2)C1` (single isomer, unassigned) [Compound 377]: the pIC50 in assay [1] was < 6.00; in assay [2] it was < 6.00; at PRMT5 [3] it was < 6.30; in assay [4], < 5.00; at PRMT5 [5] it was < 6.30; on PRMT5 [6] it was < 6.30. Besides, the MTAP intact/deleted ratio result in assay [2] is recorded as “C (an IC50 ratio of less than 3 fold)”.
Consider `Cc1cc(NC(=O)C(=O)N2CC[C@H](C#N)C[C@@H]2c2ccccc2)cnc1N` (single isomer, unassigned) [Compound 380], for which the pIC50 in assay [1] was < 6.00; in assay [2], < 6.00; on PRMT5 [3], < 6.30; in assay [4], < 5.00; on PRMT5 [5] it was < 6.30; on PRMT5 [6], < 6.30. In addition, the MTAP intact/deleted ratio result in assay [2] is “C (an IC50 ratio of less than 3 fold)”.
`C[C@@H]1CC[C@@H](c2ccc(N)cc2)N(C(=O)C(=O)Nc2cncc(C(N)=O)c2)C1` (single isomer, unassigned) [Compound 381]: the pIC50 in assay [1] was < 6.00; in assay [2] it was > 7.00; at PRMT5 [3], > 7.30; in assay [4] it was > 6.00; at PRMT5 [5], 6.30 to 7.30; on PRMT5 [6], > 7.30. For the same molecule, the MTAP intact/deleted ratio result in assay [2] is “A (an IC50 ratio greater than or equal to 10 fold)”.
For `C[C@H]1CC[C@H]([C@H]2CC[C@@H](O)CC2)N(C(=O)C(=O)Nc2cncc(C(N)=O)c2)C1` (single isomer, unassigned) [Compound 382], the pIC50 is < 6.00 in assay [1]; < 6.00 in assay [2]; < 6.30 at PRMT5 [3]; < 5.00 in assay [4]; < 6.30 on PRMT5 [5]; < 6.30 at PRMT5 [6]. Further, in assay [2], the MTAP intact/deleted ratio entry is recorded as “C (an IC50 ratio of less than 3 fold)”.
`Cc1c(NC(=O)C(=O)N2C[C@@H](C)CC[C@@H]2c2ccc(O)cc2)cnc(N)c1C` (single isomer, unassigned) [Compound 383]: the pIC50 is < 6.00 in assay [1]; > 7.00 in assay [2]; > 7.30 at PRMT5 [3]; > 6.00 in assay [4]; 6.30 to 7.30 on PRMT5 [5]; 6.30 to 7.30 on PRMT5 [6]. Besides, the MTAP intact/deleted ratio result in assay [2] is listed as “A (an IC50 ratio greater than or equal to 10 fold)”.
On to `Cc1cc(NC(=O)C(=O)N2CCCC[C@H]2c2cccc(N(C)C)c2)cnc1N` (single isomer, unassigned) [Compound 384], for which the pIC50 in assay [1] was < 6.00; in assay [2], > 7.00; at PRMT5 [3], > 7.30; in assay [4], > 6.00; at PRMT5 [5], 6.30 to 7.30; on PRMT5 [6] it was > 7.30. Besides, the MTAP intact/deleted ratio result in assay [2] was “A (an IC50 ratio greater than or equal to 10 fold)”.
Turning to `Cc1cc(NC(=O)C(=O)N2C[C@H](C)CC[C@H]2c2cccc(N(C)C)c2)cnc1N` (single isomer, unassigned) [Compound 386], the pIC50 is 6.00 to 7.00 in assay [1]; > 7.00 in assay [2]; > 7.30 at PRMT5 [3]; > 6.00 in assay [4]; 6.30 to 7.30 on PRMT5 [5]; > 7.30 on PRMT5 [6]. Further, the MTAP intact/deleted ratio entry in assay [2] was “A (an IC50 ratio greater than or equal to 10 fold)”.
As to `Cc1cc(NC(=O)C(=O)N2CCCC[C@@H]2c2cccc(N(C)C)c2)cnc1N` (single isomer, unassigned) [Compound 390], the pIC50 in assay [1] was < 6.00; in assay [2], < 6.00; at PRMT5 [3] it was 6.30 to 7.30; in assay [4] it was < 5.00; at PRMT5 [5], 6.30 to 7.30; on PRMT5 [6] it was < 6.30. Moreover, in assay [2], the MTAP intact/deleted ratio result is given as “B (an IC50 ratio greater than or equal to 3 fold but lower than 10 fold)”.
Turning to `Cc1c(NC(=O)C(=O)N2C[C@H](C)CC[C@H]2c2ccc(O)cc2)cnc(N)c1C` (single isomer, unassigned) [Compound 391], the pIC50 in assay [1] was < 6.00; in assay [2], < 6.00; on PRMT5 [3], < 6.30; in assay [4], < 5.00; at PRMT5 [5] it was < 6.30; on PRMT5 [6] it was < 6.30. In addition, the MTAP intact/deleted ratio entry in assay [2] is “C (an IC50 ratio of less than 3 fold)”.
In the case of `C[C@@H]1CC[C@@H]([C@H]2CC[C@@H](O)CC2)N(C(=O)C(=O)Nc2cncc(C(N)=O)c2)C1` (single isomer, unassigned) [Compound 393], the pIC50 in assay [1] is < 6.00; in assay [2], < 6.00; on PRMT5 [3] it was 6.30 to 7.30; in assay [4] it was < 5.00; at PRMT5 [5], 6.30 to 7.30; on PRMT5 [6] it was < 6.30. Further, the MTAP intact/deleted ratio result in assay [2] is “B (an IC50 ratio greater than or equal to 3 fold but lower than 10 fold)”.
Take `C[C@H]1CC[C@H]([C@H]2CC[C@H](O)CC2)N(C(=O)C(=O)Nc2cncc(C(N)=O)c2)C1` (single isomer, unassigned) [Compound 394]: the pIC50 was < 6.00 in assay [1]; 6.00 to 7.00 in assay [2]; > 7.30 on PRMT5 [3]; 5.00 to 6.00 in assay [4]; 6.30 to 7.30 on PRMT5 [5]; 6.30 to 7.30 on PRMT5 [6]. Besides, the MTAP intact/deleted ratio entry in assay [2] is on record as “A (an IC50 ratio greater than or equal to 10 fold)”.
`C[C@@H]1CC[C@@H]([C@H]2CC[C@H](O)CC2)N(C(=O)C(=O)Nc2cncc(C(N)=O)c2)C1` (single isomer, unassigned) [Compound 395]: the pIC50 in assay [1] is < 6.00; in assay [2], < 6.00; at PRMT5 [3], < 6.30; in assay [4], < 5.00; at PRMT5 [5], < 6.30; at PRMT5 [6], < 6.30. Moreover, the MTAP intact/deleted ratio entry in assay [2] is reported as “C (an IC50 ratio of less than 3 fold)”.
`C[C@H]1CC[C@H](c2ccc(N)cc2)N(C(=O)C(=O)Nc2cncc(C(N)=O)c2)C1` (single isomer, unassigned) [Compound 398]: the pIC50 in assay [1] was < 6.00; in assay [2] it was < 6.00; on PRMT5 [3] it was < 6.30; in assay [4] it was < 5.00; at PRMT5 [5], < 6.30; on PRMT5 [6], < 6.30. In addition, in assay [2], the MTAP intact/deleted ratio result was “B (an IC50 ratio greater than or equal to 3 fold but lower than 10 fold)”.
